The record followed here is patent US12037324B2, “Biarylmethyl heterocycles” (Université de Montréal, priority 2016, dated 2024).

Assay [1] addresses T1, AGTR1 (Homo sapiens, UniProt P30556).
T1 construct: host or cells: Pathunter CHO-K1 AGTR1 β-arrestin cell line (CHO-K1)
T1 sequence (P30556 1-359): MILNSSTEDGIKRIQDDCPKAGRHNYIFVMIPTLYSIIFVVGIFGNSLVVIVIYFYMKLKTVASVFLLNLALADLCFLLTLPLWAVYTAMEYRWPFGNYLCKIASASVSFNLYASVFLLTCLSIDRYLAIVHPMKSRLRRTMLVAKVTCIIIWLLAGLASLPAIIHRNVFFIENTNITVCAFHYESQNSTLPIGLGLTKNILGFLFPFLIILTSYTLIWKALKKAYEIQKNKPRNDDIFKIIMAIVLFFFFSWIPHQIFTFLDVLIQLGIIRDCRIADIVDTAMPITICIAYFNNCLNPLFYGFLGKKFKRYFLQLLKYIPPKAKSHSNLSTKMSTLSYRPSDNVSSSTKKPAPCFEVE
As to the kind of experiment: DiscoveRx IP1 accumulation assay (HTRF), agonist mode, Pathunter CHO-K1 AGTR1 β-arrestin cell line. It counts as cell-based. The following applies: for EC50: read-out: IP-1 EC50. Summed up:
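Agonist mode in CHO-K1 AGTR1 β-arrestin cells plated 14-16 h before; compounds at varying concentrations for 90 min at 37° C, IP1 accumulation read by HTRF (D2-conjugate and anti-IP1 cryptate, 20 min room temperature). EC50 from 4-parameter logistic fit; activity given as percentage of maximal AII effect.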

Assay [2] has as its target T2, hAT1R (Homo sapiens, UniProt P30556).
T2 sequence (P30556 1-359): T1 sequence (P30556 1-359)
Nature of the assay: cell-based. The following applies: agonist mode; for EC50: read-out: BRET P63 EC50. For orientation: Bioluminescence resonance energy transfer reports proximity on the nanometre scale.

The target of assay [3] is T2, hAT1R. Nature of the assay: cell-based.
Assay [4] deals with T2, hAT1R. Nature of the assay: BRET β-arrestin2 biosensor assay, higher receptor expression (hAT1R 5 ng/well), HEK293 cells. It counts as cell-based. The following applies: for EC50: High AT1R Expression.
The target of assay [5] is T1, AGTR1. Nature of the assay: DiscoveRx β-arrestin2 recruitment assay (enzyme complementation, Pathunter CHO-K1 AGTR1 β-arrestin cell line). It counts as cell-based. As to conditions: DiscoveRx β-arrestin2 recruitment; for DiscoveRx β-arrestin2 Ymax (%): maximal response. Summed up:
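CHO-K1 cells expressing AGTR1 with β-arrestin2 enzyme-complementation reporter, plated 14-16 h ahead in 1% serum medium, then exposed to compounds for 90 min at 37° C. Chemiluminescence read after 1 h detection. EC50 (agonist) or IC50 (antagonist) from 4-parameter logistic fit; activity as percentage of All maximal effect.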
On the technique in general: Arrestin recruitment assays detect the binding of arrestin to an activated receptor.

Where [6] appears, read: section of the 42nd table ending at r951, example numbering restarts after the DiscoveRx section, read-out: β-arrestin2 EC50.
Setting [7] is: Low AT1R Expression, read-out: BRET β-Arrestin2 Low AT1R Expression EC50.

In the case of `CCc1nc2c(C)cc(C)nc2n1Cc1ccc(-c2cc(Oc3ncccc3F)ccc2-c2nn[nH]n2)cc1` [Example 253], at AGTR1 [1], the “IP-1 Ymax (%)” value is on record as 18.7% and the EC50 (commonly the concentration that produces a half-maximal response) worked out at 0.133 µM. Moreover, at hAT1R [2], the “BRET P63 Ymax” value turned out to be 12.6% and the EC50 came to 0.0383 µM. The EC50 on hAT1R [3] (setting [6]) was 0.046 µM. On hAT1R [4], the “BRET β-Arrestin2 High AT1R Expression Ymax (%)” value is reported as 85.3% and the EC50 came to 0.0179 µM. For the same compound, at AGTR1 [5], the EC50 turned out to be 0.0312 µM and the “DiscoveRx β-arrestin2 Ymax (%)” value was 37.2%.
`CCCCC1=NC2(CCCC2)C(=O)N1Cc1ccc(-c2cc(-c3cc(OC)ccn3)ccc2-c2nn[nH]n2)cc1` [Example 141]: the EC50 on AGTR1 [1] was greater than 100 µM; at hAT1R [2], 0.0133 µM; on hAT1R [3] (setting [7]), 0.0404 µM; at hAT1R [4], 0.01 µM; at AGTR1 [5], 0.0135 µM. For the same compound, at hAT1R [2], the “BRET P63 Ymax” value turned out to be 14.9%. Further, at hAT1R [3] (Low AT1R Expression), the “BRET β-Arrestin2 Low AT1R Expression Ymax (%)” value is given as 58.9%. Also, the “BRET β-Arrestin2 High AT1R Expression Ymax (%)” value at hAT1R [4] is 88.6%. Besides, at AGTR1 [5], the “DiscoveRx β-arrestin2 Ymax (%)” value worked out at 31.5%.
As for `CCc1nc2c(C)cc(C)nc2n1Cc1ccc(-c2cc(Oc3ccccc3F)ccc2-c2noc(=O)[nH]2)cc1` [Example 214, 3-(4′-((2-Ethyl-5,7-dimethyl-3H-imidazo[4,5-b]pyridin-3-yl)methyl)-5-(2-fluorophenoxy)-[1,1′-biphenyl]-2-yl)-1,2,4-oxadiazol-5(4H)-one], at AGTR1 [1], the “IP-1 Ymax (%)” value worked out at 50.0% and the EC50 worked out at 0.0896 µM. On hAT1R [2], the “BRET P63 Ymax” value turned out to be 43.3% and the EC50 amounted to 0.0356 µM. Also, at hAT1R [3] (setting [6]), the EC50 came out at 0.0159 µM. On hAT1R [4], the “BRET β-Arrestin2 High AT1R Expression Ymax (%)” value turned out to be 86.5% and it took 0.0042 µM to reach a half-maximal effect (EC50). Besides, on AGTR1 [5], a half-maximal effect (EC50) was put at 0.0761 µM and the “DiscoveRx β-arrestin2 Ymax (%)” value came to 74.1%.
Turning to `CCc1nc2c(C)cc(C)nc2n1Cc1ccc(-c2cc(C3CCCCO3)ccc2-c2nn[nH]n2)cc1` (single isomer, unassigned) [Example 78, 2-ethyl-5,7-dimethyl-3-((5′-(tetrahydro-2H-pyran-2-yl)-2′-(2H-tetrazol-5-yl)-[1,1′-biphenyl]-4-yl)methyl)-3H-imidazo[4,5-b]pyridine], at AGTR1 [1], the “IP-1 Ymax (%)” value is given as 37.8% and the EC50 was 0.0795 µM. Further, on hAT1R [2], the “BRET P63 Ymax” value amounted to 36.1% and the EC50 came to 0.0723 µM. For the same compound, on hAT1R [3] (Low AT1R Expression), the “BRET β-Arrestin2 Low AT1R Expression Ymax (%)” value is 85.0%. At hAT1R [3] (setting [7]), the EC50 was 0.0375 µM. On hAT1R [4], the “BRET β-Arrestin2 High AT1R Expression Ymax (%)” value is recorded as 94.3% and the EC50 amounted to 0.015 µM. On AGTR1 [5], the EC50 was 0.0199 µM and the “DiscoveRx β-arrestin2 Ymax (%)” value was 50.0%.
Consider `CCc1nc2c(C)cc(C)nc2n1Cc1ccc(-c2cc(-c3cccc(C)c3)ccc2-c2nnn[nH]2)cn1` [Example 177, 2-ethyl-5,7-dimethyl-3-((5-(3′-methyl-4-(1H-tetrazol-5-yl)biphenyl-3-yl)pyridin-2-yl)methyl)-3H-imidazo[4,5-b]pyridine], for which the “IP-1 Ymax (%)” value at AGTR1 [1] amounted to 22.9%. In addition, the EC50 at AGTR1 [1] was 0.113 µM; at hAT1R [2], 0.0362 µM; on hAT1R [3] (setting [6]), 0.0115 µM; at hAT1R [4] it was 0.004 µM; at AGTR1 [5], 0.0118 µM. Besides, the “BRET P63 Ymax” value on hAT1R [2] came to 23.8%. Also, at hAT1R [4], the “BRET β-Arrestin2 High AT1R Expression Ymax (%)” value is reported as 91.8%. Besides, the “DiscoveRx β-arrestin2 Ymax (%)” value at AGTR1 [5] is given as 52.2%.
`CCc1nc2c(C)cc(C)nc2n1Cc1ccc(-c2cc(Oc3cc(C)ccn3)ccc2-c2nn[nH]n2)cc1` [Example 250]: at AGTR1 [1], the “IP-1 Ymax (%)” value was determined as 28.9% and the EC50 stood at 0.0505 µM. Further, at hAT1R [2], the “BRET P63 Ymax” value is 14.1% and the EC50 came to 0.0093 µM. Besides, the EC50 at hAT1R [3] (setting [6]) amounted to 0.011 µM. Besides, at hAT1R [4], the “BRET β-Arrestin2 High AT1R Expression Ymax (%)” value worked out at 79.8% and the EC50 was found to be 0.0038 µM. At AGTR1 [5], it took 0.023 µM to reach a half-maximal effect (EC50) and the “DiscoveRx β-arrestin2 Ymax (%)” value worked out at 43.9%.
For the compound `CCc1nc2c(C)cc(C)nc2n1Cc1ccc(-c2cc(-c3ccccc3)ccc2-c2noc(=O)[nH]2)cc1` [Example 32, 3-(4″-((2-ethyl-5,7-dimethyl-3H-imidazo[4,5-b]pyridin-3-yl)methyl)-[1,1′:3′,1″-terphenyl]-4′-yl)-1,2,4-oxadiazol-5(4H)-one], on AGTR1 [1], the “IP-1 Ymax (%)” value was determined as 10.8% and the EC50 is 0.0384 µM. Also, at hAT1R [2], the “BRET P63 Ymax” value is 25.2% and the EC50 is 0.0211 µM. The “BRET β-Arrestin2 Low AT1R Expression Ymax (%)” value at hAT1R [3] (Low AT1R Expression) was found to be 80.9%. Besides, the EC50 on hAT1R [3] (setting [7]) was found to be 0.0125 µM. Besides, on hAT1R [4], the “BRET β-Arrestin2 High AT1R Expression Ymax (%)” value came to 91.6% and the EC50 was 0.0051 µM. In addition, at AGTR1 [5], it took 0.0343 µM to reach a half-maximal effect (EC50) and the “DiscoveRx β-arrestin2 Ymax (%)” value turned out to be 86.1%.
Take `CCc1nc2c(C)cc(C)nc2n1Cc1ccc(-c2cc(-c3cccc(C)n3)ccc2-c2nn[nH]n2)cc1` [Example 59]: on AGTR1 [1], the “IP-1 Ymax (%)” value was found to be 10.4%. In addition, the EC50 at AGTR1 [1] is 0.0219 µM; on hAT1R [2] it was greater than 10 µM; at hAT1R [3] (setting [7]), greater than 10 µM; at hAT1R [4], 0.014 µM; at AGTR1 [5], 0.0125 µM. At hAT1R [4], the “BRET β-Arrestin2 High AT1R Expression Ymax (%)” value stood at 52.1%. Moreover, on AGTR1 [5], the “DiscoveRx β-arrestin2 Ymax (%)” value worked out at 29.5%.
Turning to `CCC1=NC2(CCCC2)C(=O)N1Cc1ccc(-c2cc(-c3ccccc3)ccc2-c2nn[nH]n2)cc1` [Example 112, 3-((6′-(2H-tetrazol-5-yl)-[1,1′:3′,1″-terphenyl]-4-yl)methyl)-2-ethyl-1,3-diazaspiro[4.4]non-1-en-4-one], the “IP-1 Ymax (%)” value on AGTR1 [1] is recorded as 7.7%. Also, the EC50 on AGTR1 [1] came to 0.284 µM; on hAT1R [2], 0.0468 µM; at hAT1R [3] (setting [7]), 0.174 µM; on hAT1R [4], 0.0306 µM; on AGTR1 [5], 0.124 µM. At hAT1R [2], the “BRET P63 Ymax” value is 8.2%. Further, the “BRET β-Arrestin2 Low AT1R Expression Ymax (%)” value at hAT1R [3] (Low AT1R Expression) is 39.3%. The “BRET β-Arrestin2 High AT1R Expression Ymax (%)” value at hAT1R [4] is 78.5%. The “DiscoveRx β-arrestin2 Ymax (%)” value at AGTR1 [5] turned out to be 33.4%.
On to `CCCCC1=NC2(CCCC2)C(=O)N1Cc1ccc(-c2cc(-c3cc(C)ccn3)ccc2-c2nn[nH]n2)cc1` [Example 139], for which, on AGTR1 [1], the “IP-1 Ymax (%)” value was found to be 16.8% and the EC50 is 0.0192 µM. In addition, at hAT1R [2], the “BRET P63 Ymax” value was 20.6% and the EC50 was determined as 0.0344 µM. Moreover, at hAT1R [3] (Low AT1R Expression), the “BRET β-Arrestin2 Low AT1R Expression Ymax (%)” value was 83.5%. At hAT1R [3] (setting [7]), the EC50 was 0.0414 µM. Further, at hAT1R [4], the “BRET β-Arrestin2 High AT1R Expression Ymax (%)” value amounted to 95.0% and the EC50 amounted to 0.0112 µM. In addition, at AGTR1 [5], a half-maximal effect (EC50) was put at 0.0105 µM and the “DiscoveRx β-arrestin2 Ymax (%)” value was found to be 50.1%.
Take `CCc1nc2c(C)cc(C)nc2n1Cc1ccc(-c2cc(Oc3cc(Cl)ccn3)ccc2-c2nn[nH]n2)cc1` [Example 251]: at AGTR1 [1], the “IP-1 Ymax (%)” value is recorded as 10.9% and the concentration for a half-maximal effect (EC50) amounted to 0.182 µM. In addition, at hAT1R [2], the “BRET P63 Ymax” value is on record as 6.7% and the EC50 was 0.0111 µM. At hAT1R [3] (setting [6]), the EC50 was found to be 0.0082 µM. Moreover, at hAT1R [4], the “BRET β-Arrestin2 High AT1R Expression Ymax (%)” value amounted to 57.2% and a half-maximal response (EC50) required 0.0106 µM. Further, on AGTR1 [5], the EC50 is 0.0336 µM and the “DiscoveRx β-arrestin2 Ymax (%)” value turned out to be 20.2%.
Take `CCc1nc2c(C)cc(C)nc2n1Cc1ccc(-c2cc(-c3ccc(CO)cc3)ccc2-c2nnn[nH]2)cn1` [Example 180]: the “IP-1 Ymax (%)” value on AGTR1 [1] worked out at 27.5%. Further, the 50% effective concentration (EC50) on AGTR1 [1] turned out to be 0.226 µM; on hAT1R [2] it was 0.21 µM; on hAT1R [3] (setting [6]), 0.178 µM; on hAT1R [4], 0.0508 µM; on AGTR1 [5] it was 0.0519 µM. Besides, the “BRET P63 Ymax” value on hAT1R [2] is 14.9%. Moreover, the “BRET β-Arrestin2 High AT1R Expression Ymax (%)” value on hAT1R [4] was found to be 85.3%. Also, the “DiscoveRx β-arrestin2 Ymax (%)” value at AGTR1 [5] turned out to be 40.4%.
